From patent US9783537B2, “3-(4-ethylnylphenyl) pyridopyrimidinone compounds and process for preparation thereof useful as potential anticancer agents” (Council of Scientific & Industrial Research, priority 2013, dated 2017)
“Also recorded” adds a separate entry of the source. Where two headings read alike, the source gives them in different places.

What was measured:
MOLT-4 = test: SRB 48 h growth assay, Leukemia MOLT-4; type: cell-based, human; details: MOLT-4, Leukemia; for GI50 / CC50: Homo sapiens; for CC50: read-out: Log10 LC50 (converted)
SR = test: SRB 48 h growth assay, Leukemia SR; type: cell-based, human; details: for GI50 / CC50: Homo sapiens; for CC50: read-out: Log10 LC50 (converted)
[1] = tested on: eight renal cancer cell line (786-0, A498, ACHN, CAKI-1, SN12C, TK-10, UO-31 and RXF 393); test: in vitro anticancer activity, renal panel; type: cell-based; details: Homo sapiens; eight renal cancer cell lines, exposure at least 48 h; read-out: in vitro anticancer activity, range over panel
[2] = tested on: sixty human cancer cell lines; test: anticancer activity against sixty human cancer cell lines (NCI)
Method: The compounds were evaluated for anticancer activity against sixty human cancer cells derived from nine cancer types (leukemia cell line, non-small-cell lung cell line, colon cell line, CNS cell line, melanoma cell line, ovarian cell line, prostate cell line, renal cell line and breast cancer cell line) as shown in Table 1. For each compound, dose response curves for each cell line were measured at a minimum of five concentrations at 10 fold dilutions. A protocol of 48 h continuous drug exposure was used and a sulforhodamine B (SRB) protein assay was used to estimate cell viability or growth.

NCI-H322M = test: SRB 48 h growth assay, Non-small Cell Lung NCI-H322M; type: cell-based, human; details: for GI50 / CC50: Homo sapiens; for CC50: read-out: Log10 LC50 (converted)
NCI-H460 = test: SRB 48 h growth assay, Non-small Cell Lung NCI-H460; type: cell-based, human
COLO 205 = test: SRB 48 h growth assay, Colon COLO 205; type: cell-based, human; details: COLO 205, Colon; for GI50 / CC50: Homo sapiens; for CC50: read-out: Log10 LC50 (converted)
HCT-15 = test: SRB 48 h growth assay, Colon HCT-15; type: cell-based, human; details: HCT-15, Colon
SF-268 = test: SRB 48 h growth assay, CNS SF-268; type: cell-based, human; details: SF-268, CNS; for GI50 / CC50: Homo sapiens; for CC50: read-out: Log10 LC50 (converted)
SF-539 = test: SRB 48 h growth assay, CNS SF-539; type: cell-based, human; details: SF-539, CNS
MALME-3M = test: SRB 48 h growth assay, Melanoma MALME-3M; type: cell-based, human; details: for GI50 / CC50: Homo sapiens; for CC50: read-out: Log10 LC50 (converted)
IGROV1 = test: SRB 48 h growth assay, Ovarian IGROV1; type: cell-based, human; details: for GI50 / CC50: Homo sapiens; for CC50: IGROV-1, read-out: Log10 LC50 (converted)
OVCAR-5 = test: SRB 48 h growth assay, Ovarian OVCAR-5; type: cell-based, human; details: OVCAR-5, Ovarian
A498 = test: SRB 48 h growth assay, Renal A498; type: cell-based, human
CAKI-1 = test: SRB 48 h growth assay, Renal CAKI-1; type: cell-based, human; details: CAKI-1, Renal; for GI50 / CC50: Homo sapiens; for CC50: read-out: Log10 LC50 (converted)
SN12C = test: SRB 48 h growth assay, Renal SN12C; type: cell-based, human; details: for GI50 / CC50: Homo sapiens; for CC50: read-out: Log10 LC50 (converted)
[3] = read-out: Growth Inhibition GI50
[4] = read-out: Log10 GI50 (converted)
[5] = Homo sapiens, read-out: Growth Inhibition GI50
[6] = Homo sapiens, read-out: Log10 GI50 (converted)
[7] = Homo sapiens, read-out: Log10 LC50 (converted)
[8] = IGROV-1, read-out: Growth Inhibition GI50
[9] = IGROV-1, read-out: Log10 GI50 (converted)

Compound: C#Cc1ccc(-n2c(/C=C/c3ccc(Cl)c(F)c3)nc3ncccc3c2=O)cc1 [4g, (E)-2-(4-chloro-3-fluorostyryl)-3-(4-ethynylphenyl)pyrido[2,3-d]pyrimidin-4(3H)-one]
- GI50 (MOLT-4; [3]): 540 nM
- GI50 (MOLT-4; [4]): 550 nM
- CC50 (MOLT-4): > 100000 nM
- Log10 TGI50 (MOLT-4): >−4.00
- GI50 (SR; [3]): 330 nM
- GI50 (SR; [4]): 331 nM
- CC50 (SR): > 100000 nM
- GI50 [1]: 280 to 360 nM
- anticancer activity (in words) [2]: highest anticancer activity; also recorded: good profile at nanomolar range growth inhibition activity in several cancer cell lines

Compound: C#Cc1ccc(-n2c(/C=C/c3ccc4ccccc4c3)nc3ncccc3c2=O)cc1 [4s, (E)-3-(4-Ethynylphenyl)-2-(2-(naphthalen-2-yl)vinyl)pyrido[2,3-d]pyrimidin-4(3H)-one]
- GI50 (MOLT-4; [3]): 2000 nM
- GI50 (MOLT-4; [4]): 2000 nM
- CC50 (MOLT-4): > 100000 nM
- Log10 TGI50 (MOLT-4): >−4.00
- Log10 TGI50 (SR): >−4.00
- GI50 (SR; [3]): 1400 nM
- GI50 (SR; [4]): 1410 nM
- CC50 (SR): > 100000 nM
- Log10 TGI50 (NCI-H322M): >−4.00
- GI50 (NCI-H322M; [3]): 7300 nM
- GI50 (NCI-H322M; [4]): 7240 nM
- CC50 (NCI-H322M): > 100000 nM
- Log10 TGI50 (NCI-H460): >−4.00
- GI50 (NCI-H460; [5]): 2880 nM
- GI50 (NCI-H460; [6]): 2880 nM
- LC50 (NCI-H460; [7]): > 100000 nM
- Log10 TGI50 (COLO 205): −5.44
- GI50 (COLO 205; [3]): 2060 nM
- GI50 (COLO 205; [4]): 2040 nM
- CC50 (COLO 205): 3630 nM
- Log10 TGI50 (HCT-15): >−4.00
- GI50 (HCT-15; [5]): 2910 nM
- GI50 (HCT-15; [6]): 2880 nM
- CC50 (HCT-15; [7]): > 100000 nM
- GI50 (SF-268; [3]): 2600 nM
- GI50 (SF-268; [4]): 2630 nM
- CC50 (SF-268): > 100000 nM
- Log10 TGI50 (SF-268): >−4.00
- GI50 (SF-539; [5]): 2910 nM
- GI50 (SF-539; [6]): 2880 nM
- CC50 (SF-539; [7]): > 100000 nM
- Log10 TGI50 (SF-539): >−4.00
- Log10 TGI50 (MALME-3M): >−4.00
- GI50 (MALME-3M; [3]): 4970 nM
- GI50 (MALME-3M; [4]): 6310 nM
- CC50 (MALME-3M): > 100000 nM
- Log10 TGI50 (IGROV1): >−4.00
- GI50 (IGROV1; [8]): 2920 nM
- GI50 (IGROV1; [9]): 2950 nM
- CC50 (IGROV1): > 100000 nM
- GI50 (OVCAR-5; [5]): 6880 nM
- GI50 (OVCAR-5; [6]): 6920 nM
- CC50 (OVCAR-5; [7]): > 100000 nM
- Log10 TGI50 (OVCAR-5): >−4.00
- Log10 TGI50 (A498): −5.23
- GI50 (A498; [5]): 1690 nM
- GI50 (A498; [6]): 1700 nM
- CC50 (A498; [7]): 5890 nM
- Log10 TGI50 (CAKI-1): >−4.31
- GI50 (CAKI-1; [3]): 2980 nM
- GI50 (CAKI-1; [4]): 2950 nM
- CC50 (CAKI-1): > 100000 nM
- Log10 TGI50 (SN12C): >−4.00
- GI50 (SN12C; [3]): 3290 nM
- GI50 (SN12C; [4]): 3310 nM
- CC50 (SN12C): > 100000 nM
- GI50 [1]: 220 to 430 nM

Compound: C#Cc1ccc(-n2c(/C=C/c3ccc4ccccc4n3)nc3ncccc3c2=O)cc1 [4t, (E)-3-(4-Ethynylphenyl)-2-(2-(quinolin-2-yl)vinyl)pyrido[2,3-d]pyrimidin-4(3H)-one]
- GI50 (MOLT-4; [3]): 450 nM
- GI50 (MOLT-4; [4]): 457 nM
- CC50 (MOLT-4): > 100000 nM
- Log10 TGI50 (MOLT-4): >−4.00
- GI50 (SR; [3]): 270 nM
- GI50 (SR; [4]): 275 nM
- CC50 (SR): > 100000 nM
- Log10 TGI50 (NCI-H322M): −5.62
- GI50 (NCI-H322M; [3]): 520 nM
- GI50 (NCI-H322M; [4]): 525 nM
- CC50 (NCI-H322M): > 100000 nM
- Log10 TGI50 (NCI-H460): −6.03
- GI50 (NCI-H460; [5]): 290 nM
- GI50 (NCI-H460; [6]): 302 nM
- Log10 TGI50 (COLO 205): −6.13
- GI50 (COLO 205; [3]): 300 nM
- GI50 (COLO 205; [4]): 302 nM
- CC50 (COLO 205): 3630 nM
- Log10 TGI50 (HCT-15): −5.88
- GI50 (HCT-15; [5]): 320 nM
- GI50 (HCT-15; [6]): 331 nM
- GI50 (SF-268; [3]): 380 nM
- GI50 (SF-268; [4]): 389 nM
- CC50 (SF-268): > 100000 nM
- Log10 TGI50 (SF-268): −5.74
- GI50 (SF-539; [5]): 200 nM
- GI50 (SF-539; [6]): 204 nM
- Log10 TGI50 (SF-539): −6.29
- Log10 TGI50 (MALME-3M): −5.50
- GI50 (MALME-3M; [3]): 1210 nM
- GI50 (MALME-3M; [4]): 1200 nM
- CC50 (MALME-3M): 8320 nM
- Log10 TGI50 (IGROV1): −5.87
- GI50 (IGROV1; [8]): 400 nM
- GI50 (IGROV1; [9]): 398 nM
- CC50 (IGROV1): 5370 nM
- GI50 (OVCAR-5; [5]): 310 nM
- GI50 (OVCAR-5; [6]): 309 nM
- Log10 TGI50 (OVCAR-5): −5.97
- Log10 TGI50 (A498): −6.14
- GI50 (A498; [5]): 220 nM
- GI50 (A498; [6]): 229 nM
- Log10 TGI50 (CAKI-1): −5.81
- GI50 (CAKI-1; [3]): 320 nM
- GI50 (CAKI-1; [4]): 324 nM
- CC50 (CAKI-1): > 100000 nM
- Log10 TGI50 (SN12C): −5.67
- GI50 (SN12C; [3]): 390 nM
- GI50 (SN12C; [4]): 389 nM
- CC50 (SN12C): > 100000 nM
- GI50 [1]: 1480 to 8780 nM
